Assay results published in patent US9963462B2 (priority 2015, dated 2018).

Tests used:
[1] = system: BH4 levels in SK-N-BE (2) cells; test: SKN-N-BE (2) cellular assay, BH4 levels by LC-MS; format: cell-based; settings: Homo sapiens, SKNBE2, read-out: SK-N-BE(2) IC50, SK-N-BE (2) cells, BH4 levels by LC-MS
[2] = molecular target: SNAP-hSPR (sepiapterin reductase, SPR) (Homo sapiens, UniProt P35270); test: biochemical; format: binding; settings: terbium labelled SNAP-hSPR / SSZ labelled SNAP-EGFP; read-out: hTR-FRET IC50
SNAP-hSPR (sepiapterin reductase, SPR), sequence (P35270 whole entry): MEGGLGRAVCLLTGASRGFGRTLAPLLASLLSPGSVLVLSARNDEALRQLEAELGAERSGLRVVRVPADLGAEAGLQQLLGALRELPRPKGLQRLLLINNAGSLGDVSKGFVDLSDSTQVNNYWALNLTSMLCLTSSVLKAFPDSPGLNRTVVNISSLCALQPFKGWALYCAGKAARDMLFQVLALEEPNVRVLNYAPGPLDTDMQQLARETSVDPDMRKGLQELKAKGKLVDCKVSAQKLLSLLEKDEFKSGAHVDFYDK

Row | Structure (SMILES) | IC50 [1] | IC50 [2]
1 | Cc1c(C(=O)N2CCC(C(F)(F)F)C2(C)C)cnn1-c1nn2cccc2c(=O)[nH]1 (stereo not shown) [Q-0959] | 1000 nM | –
2 | Cc1c(C(=O)N2CCC(C3(C#N)CCCC3)CC2)cnn1-c1nn2cccc2c(=O)[nH]1 [Q-0988] | 69 nM | –
3 | Cc1c(C(=O)N2C3CCC2CN(c2ccccc2)C3)cnn1-c1nn2cccc2c(=O)[nH]1 [Q-0875] | 76 nM | –
4 | O=C(c1cnn(-c2nn3c(F)ccc3c(=O)[nH]2)c1C1CC1)N1CCC1 [Q-0863] | 600 nM | –
5 | Cc1c(C(=O)N2CCC(F)(c3ccc(F)cc3)C2)cnn1-c1nn2cccc2c(=O)[nH]1 (stereo not shown) [Q-0996] | 1900 nM | –
6 | Cc1c(C(=O)N2CCC(N3CCC(F)CC3)C2)cnn1-c1nn2cccc2c(=O)[nH]1 (stereo not shown) [Q-1027] | 3100 nM | –
7 | Cc1c(C(=O)N2[C@H](C)CN(C(=O)OC(C)(C)C)C[C@@H]2C)cnn1-c1nn2cccc2c(=O)[nH]1 [Q-0968] | 400 nM | –
8 | Cc1c(C(=O)N2CCN3C(=O)CC[C@@H]3C2)cnn1-c1nn2cccc2c(=O)[nH]1 [Q-0862] | 10000 nM | –
9 | Cc1c(C(=O)N2CCN(C(=O)OC(C)(C)C)CC2C)cnn1-c1nn2cccc2c(=O)[nH]1 (stereo not shown) [Q-0885] | 400 nM | –
10 | Cc1c(C(=O)N2CCC(N3CCCC3=O)CC2)cnn1-c1nn2cccc2c(=O)[nH]1 [Q-0935] | 1600 nM | –
11 | Cc1c(C(=O)N2CCC(C)CC2)cnn1-c1nn2cccc2c(=O)[nH]1 [Q-1040] | 300 nM | –
12 | O=C(O)c1cnn(-c2nc3c(c(=O)[nH]2)CCC3)c1C1CC1 [Q-0544] | – | 30 nM
13 | Cc1cc(=O)[nH]c(-c2cnn(CCC(=O)N3CCc4ccccc4C3)c2)n1 (single isomer, unassigned) [Q-0291, 6-methyl-2-{1-[3-oxo-3-(1,2,3,4-tetrahydroisoquinolin-2-yl)propyl]-1H-pyrazol-4-yl}-3,4-dihydropyrimidin-4-one] | – | 2700 nM
14 | Cc1c(C(=O)N2CCC(S(=O)(=O)c3ccccc3)CC2)cnn1-c1nn2cccc2c(=O)[nH]1 [Q-1984] | – | 1 nM
15 | Cc1c(C(=O)N2CCN(S(=O)(=O)c3cccc(C(=O)O)c3)CC2)cnn1-c1nn2cccc2c(=O)[nH]1 [Q-1845] | – | 2 nM
16 | Cc1cc(=O)[nH]c(-n2nc(C)c(CCC(=O)N3CCCCC3C)c2C)n1 (stereo not shown) [Q-0002] | – | 30 nM
17 | Cc1cc(-c2cnn(CCC(=O)N3CCc4ccccc4C3)c2)[nH]c(=O)n1 (single isomer, unassigned) [Q-0292, 4-methyl-6-{1-[3-oxo-3-(1,2,3,4-tetrahydroisoquinolin-2-yl)propyl]-1H-pyrazol-4-yl}-1,2-dihydropyrimidin-2-one] | – | 40000 nM
18 | Cc1c(C(=O)N2CCN(S(=O)(=O)c3ccc4ccccc4c3)CC2)cnn1-c1nn2cccc2c(=O)[nH]1 [Q-1831] | – | 3 nM
19 | Cc1cc(=O)[nH]c(-n2ncc(C(=O)O)c2C)n1 [Q-0290] | – | 2000 nM
20 | Cc1c(C(=O)N2CC3(C2)CC(F)(F)C3)cnn1-c1nc2c(c(=O)[nH]1)COC2 [Q-1346] | – | 50 nM
21 | COC(=O)c1cnn(-c2nc3c(c(=O)[nH]2)CC(C)(C)C3)c1C [Q-1641] | – | 5000 nM
22 | Cc1c(C(=O)N2CCN(CC(F)(F)F)CC2)cnn1-c1nc2c(c(=O)[nH]1)CC(C)(C)C2 [Q-1563] | – | 5000 nM
23 | Cc1c(C(=O)N2CCc3ccccc3C2)cnn1-c1nc2cc(Cl)sc2c(=O)[nH]1 [Q-0394] | – | 1500 nM
24 | Cc1c(C(=O)N2CCOCC2)cnn1-c1nc2ccccc2c(=O)[nH]1 [Q-0320] | – | 1300 nM

Row | Structure (SMILES) | IC50 [1] | IC50 [2]
25 | Cc1cc(=O)[nH]c(-n2ncc(C(=O)NCCc3ccc(F)cc3)c2C)n1 [Q-0007] | – | 100 nM
26 | Cc1c(C(=O)N2CCN(S(=O)(=O)c3ccc(C(C)(C)C)cc3)CC2)cnn1-c1nn2cccc2c(=O)[nH]1 [Q-1800] | – | 2 nM
27 | CC(=O)Nc1ccc(S(=O)(=O)N2CCN(C(=O)c3cnn(-c4nn5cccc5c(=O)[nH]4)c3C)CC2)cc1 [Q-1833] | – | 1 nM
28 | Cc1c(C(=O)N2CCN(S(=O)(=O)c3cccc4c(N(C)C)cccc34)CC2)cnn1-c1nn2cccc2c(=O)[nH]1 [Q-1815] | – | 2 nM
29 | Cc1c(C(=O)N2CCC(C(F)(F)F)CC2)cnn1-c1nc2nc[nH]c2c(=O)[nH]1 [Q-0448] | – | 1500 nM
30 | Cc1c(C(=O)N2CCN(S(=O)(=O)c3ccc(Br)cc3)CC2)cnn1-c1nn2cccc2c(=O)[nH]1 [Q-1837] | – | 1 nM
31 | Cc1c(C(=O)N2CCc3c(c(C(F)(F)F)nn3C)C2)cnn1-c1nn2cccc2c(=O)[nH]1 [Q-2048] | – | 4 nM
32 | Cc1c(C(=O)N2CC(N3CCC(F)(F)C3)C2)cnn1-c1nc2c(ccn2C)c(=O)[nH]1 [Q-1322] | – | 400 nM
33 | Cc1c(C(=O)N2CC(N3CCC(F)(F)C3)C2)cnn1-c1nc2c(c(=O)[nH]1)CC(C)(C)C2 [Q-1564, 2-(4-(3-(3,3-difluoropyrrolidin-1-yl)azetidine-1-carbonyl)-5-methyl-1H-pyrazol-1-yl)-6,6-dimethyl-6,7-dihydro-3H-cyclopenta[d]pyrimidin-4(5H)-one] | – | 5000 nM
34 | Cc1c(C(=O)N2CCN(S(=O)(=O)c3ccc(F)c(Cl)c3)CC2)cnn1-c1nn2cccc2c(=O)[nH]1 [Q-1801] | – | 2 nM
35 | Cc1cc(=O)[nH]c(-n2nc(C)c(CC(=O)N3CCCC3)c2C)n1 [Q-0301] | – | 200 nM
36 | Cc1cc(=O)n(C)c(-n2ncc(C(=O)N3CCc4ccccc4C3)c2C)n1 [Q-0455] | – | 16000 nM
37 | Cc1c(C(N2CCC(C(F)(F)F)CC2)C(F)(F)F)cnn1-c1nc2c(c(=O)[nH]1)CCC2 (stereo not shown) [Q-0503, 2-(5-methyl-4-{2,2,2-trifluoro-1-[4-(trifluoromethyl)piperidin-1-yl]ethyl}-1H-pyrazol-1-yl)-3H,4H,5H,6H,7H-cyclopenta[d]pyrimidin-4-one] | – | 4000 nM
38 | Cc1cc(=O)[nH]c(-n2ncc(C(=O)N3CCC4(CCN(C)C4)C3)c2C)n1 (stereo not shown) [Q-0322] | – | 200 nM
39 | Cc1c(C(=O)N2CC(N3CCC(F)(F)C3)C2)cnn1-c1nc2[nH]ncc2c(=O)[nH]1 [Q-1345] | – | 1400 nM
40 | Cc1c(C(=O)N2CCN(C(=O)c3ccco3)CC2)cnn1-c1nn2cccc2c(=O)[nH]1 [Q-2032] | – | 6 nM
41 | Cc1c(C(=O)O)cnn1-c1nc2ccsc2c(=O)[nH]1 [Q-0541] | – | 200 nM
42 | Cc1c(C(=O)N2CCN(S(=O)(=O)c3ccc4c(c3)OCO4)CC2)cnn1-c1nn2cccc2c(=O)[nH]1 [Q-1829] | – | 2 nM
43 | CCn1ccc2c(=O)[nH]c(-n3ncc(C(=O)N4CC(N5CCC(F)(F)C5)C4)c3C)nc21 [Q-1311] | – | 5000 nM
44 | CC(=O)Nc1nc(C)c(S(=O)(=O)N2CCN(C(=O)c3cnn(-c4nn5cccc5c(=O)[nH]4)c3C)CC2)s1 [Q-1827] | – | 1 nM
45 | Cc1cc(=O)[nH]c(-c2cnn(CCC(=O)N3CCCC3)c2)n1 [Q-0283, 6-methyl-2-{1-[3-oxo-3-(pyrrolidin-1-yl)propyl]-1H-pyrazol-4-yl}-3,4-dihydropyrimidin-4-one] | – | 1500 nM
46 | Cc1nc(-n2ncc(C(=O)N3c4ccccc4C[C@@H]3C)c2C)[nH]c(=O)c1C (single isomer, unassigned) [Q-0457] | – | 100 nM
47 | COc1ccc(OC)c(S(=O)(=O)N2CCN(C(=O)c3cnn(-c4nn5cccc5c(=O)[nH]4)c3C)CC2)c1 [Q-1839] | – | 2 nM
48 | Cc1c(C(=O)N2CC[C@@H]2c2ccc(F)nc2)cnn1-c1nn2cccc2c(=O)[nH]1 [Q-2054] | – | 4 nM

Row | Structure (SMILES) | IC50 [1] | IC50 [2]
49 | CCn1ccc2c(=O)[nH]c(-n3ncc(C(=O)N4CC5(C4)CC(F)(F)C5)c3C)nc21 [Q-1313] | – | 5000 nM
50 | O=C(c1cnn(-c2cc3nccn3c(=O)[nH]2)c1)N1CCC(C(F)(F)F)CC1 [Q-0452] | – | 800 nM
51 | Cc1c(C(=O)N2CCN(S(=O)(=O)c3cc(C(F)(F)F)cc(C(F)(F)F)c3)CC2)cnn1-c1nn2cccc2c(=O)[nH]1 [Q-1835] | – | 4 nM
52 | Cc1cc(-n2ncc(C(=O)N3CCC(C(F)(F)F)CC3)c2C)[nH]c(=O)n1 [Q-0454] | – | 300 nM
53 | Cc1c(C(=O)N2CCc3[nH]nc(C(F)(F)F)c3C2)cnn1-c1nn2cccc2c(=O)[nH]1 [Q-2031] | – | 3 nM
54 | Cc1c(C(=O)O)cnn1-c1nc2sccc2c(=O)[nH]1 [Q-0542] | – | 100 nM
55 | Cc1c(C(=O)N2CC(N3CCC(F)(F)C3)C2)cnn1-c1nc2c(c(=O)[nH]1)COC2 [Q-1343] | – | 70 nM
56 | Cc1c(C(=O)N2CCN(S(=O)(=O)c3cc(Cl)c(Cl)s3)CC2)cnn1-c1nn2cccc2c(=O)[nH]1 [Q-1814] | – | 2 nM
57 | Cc1c(C(=O)N2CC3(C2)CC(F)(F)C3)cnn1-c1nc2[nH]ncc2c(=O)[nH]1 [Q-1295] | – | 2400 nM
58 | Cc1cc(=O)[nH]c(-c2c(C)nn(CCC(=O)N3CCc4ccccc4C3)c2C)n1 [Q-0284] | – | 2900 nM
59 | CCC1Cc2ccccc2N1C(=O)c1cnn(-c2nc(C)cc(=O)[nH]2)c1C (stereo not shown) [Q-0420] | – | 7 nM
60 | Cc1c(C(=O)N2CCN(S(=O)(=O)c3ccc(Cl)c4nonc34)CC2)cnn1-c1nn2cccc2c(=O)[nH]1 [Q-1885] | – | 10 nM
61 | COc1ccc(S(=O)(=O)N2CCN(C(=O)c3cnn(-c4nn5cccc5c(=O)[nH]4)c3C)CC2)cc1 [Q-1804] | – | 2 nM
62 | Cc1c(C(=O)N2CCC(c3nc(C(N)=O)cs3)CC2)cnn1-c1nn2cccc2c(=O)[nH]1 [Q-1090] | – | 1 nM
63 | Cc1c(C(=O)N2CC3CC(C2)N3CC(F)(F)F)cnn1-c1nc2[nH]ncc2c(=O)[nH]1 [Q-1560] | – | 800 nM
64 | Cc1c(C(=O)N2CCN(CC(F)(F)F)CC2)cnn1-c1nc2[nH]ncc2c(=O)[nH]1 [Q-1296] | – | 600 nM
65 | Cc1c(C(=O)N2CC3(C2)CC(F)(F)C3)cnn1-c1nc2c(ccn2C)c(=O)[nH]1 [Q-1306] | – | 500 nM
66 | Cc1c(C(=O)N2CCNCC2)cnn1-c1nn2cccc2c(=O)[nH]1 [Q-1251] | – | 50 nM
67 | CCn1ccc2c(=O)[nH]c(-n3ncc(C(=O)N4CC5CC(C4)N5CC(F)(F)F)c3C)nc21 [Q-1341] | – | 5000 nM
68 | Cc1c(C(=O)N2CC(c3ccncc3F)C2)cnn1-c1nn2cccc2c(=O)[nH]1 [Q-2043] | – | 5 nM
69 | Cc1cc(-c2c(C)nn(CCC(=O)N3CCc4ccccc4C3)c2C)[nH]c(=O)n1 [Q-0285, 4-{3,5-dimethyl-1-[3-oxo-3-(1,2,3,4-tetrahydroisoquinolin-2-yl)propyl]-1H-pyrazol-4-yl}-6-methyl-1,2-dihydropyrimidin-2-one] | – | 40000 nM
70 | Cc1cc(=O)[nH]c(-n2ncc(C(=O)N3CCc4ccc(C#N)cc4C3)c2C)n1 [Q-0286] | – | 10 nM
